Test results: US12459930B2, “Compounds for the inhibition of unregulated cell growth” (GODAVARI BIOREFINERIES LIMITED, priority 2018, dated 2025)
Values joined by “and” are separate entries in the source; they are usually repeats but may differ in a detail not shown here. Identical values can stand only once. Like-named read-outs stand apart in the source and are kept apart here.

How the values were obtained:
[1] = tested on: MDAMB231 spheres (cancer stem cells); assay: In vitro sphere-forming assay (cancer stem cells), MDAMB231 in Mammosphere media; details: for 3D sphere count of MDAMB231 in Mammosphere media: 2000 cells/well, n = 6 ± S.D
Procedure: (§7) In Vitro Sphere-forming Assay: Sphere assay measures the ability of cancer stem cells (CSCs) to form spheres in specially designed serum-free medium.
Mammosphere Media Preparation (For 100 mL): 1 g methyl cellulose autoclaved with magnetic stirrer, 100 ml plain media (MEBM) was added and dissolved under magnetic stirring. After complete dissolution FGF—80 μL, EGF—40 μL, Penstrep—1 mL, Heparin—400 μL was added.
(§8) Procedure—The cells were trypsinised and made into single-cell suspension by passing through cell strainers (100 μl and 40 μl, respectively), The cells were diluted at a concentration of 2000 cells/100 μL and suspended in either Mammosphere (for breast cell lines) or Prostosphere (for prostate cell lines). 100 μL of this suspension was added into each well of 96-well suspension plates and incubated at 37 C, 50 CO2 for 24 hrs. Appropriate concentrations of the drugs (2 L) were added into respective wells with 100 μL of stem cell culture medium. Plates were incubated at 37° C., 50% CO2 for 72 hrs. After incubation, 2.5 μL of the respective drug concentration and 50 μL of stem cell culture medium were added into each well and the plates were further incubated at 37° C., 500 CO2 for 72 hrs. 3 μL of the respective drug concentration was added with 50 μL of stem cell culture medium again after incubation and plates were reincubated for 72 hrs at 37° C., 500 CO2. Number of primary spheres formed for each concentration were counted. The spheres were converted to 0 viability of spheres compared to untreated (Growth Control with DMSO, GCD).

[2] = tested on: MDAMB231 breast cancer cell line; assay: Soft agar colony-formation assay, MDAMB231; assay type: cell-based; details: 1 week, Alamar Blue, read-out: IC50 in micromolar, MDAMB231 (Soft Agar Assay)
Procedure: (§1) The Soft Agar Colony-formation Assay is an anchorage-independent growth assay in soft agar, which is one of the most stringent assays for detecting malignant transformation of cells. For this assay, malignant cells are cultured with appropriate controls in soft agar medium for 1-2 weeks. Following this incubation period, formed colonies can either be analyzed morphologically using cell stain and quantifying the number of colonies formed.
(§2) Briefly, for Soft Agar Assay a mixture of 50 ul of 2× medium (taken appropriately as per cell line) and 50 ul of 1.2% Bacto Agar were plated on to each well of 96 well micro titer assay plate. 10 ul of cells (of specific plating efficiency pre standardized for respective cell line) were mixed with 20 ul of 2× medium and 30 ul of 0.8% of Bacto Agar and 1.6 ul of drug (of appropriate concentration) in a vial and transferred to the solidified pre layers of the assay plates. The cells were then allowed to grow and form colonies at 37° C. and 5% C02 for 1 week. An intermittent feeding with 50 ul of appropriate 2× medium was performed after 3 days of experimental set up. 16 ul of Alamar Blue (1.5 mg/ml) was then added to all the wells to quantify the developed colonies. The plates were incubated for 24 hrs at 37° C. Absorbance was then measured at 630 nm. XY graph of log Percent viability was then plotted against log drug concentration.
(§3) Following plating efficiencies were standardized for Soft Agar Assay: […]

[3] = tested on: PC3 prostate cancer cell line; assay: Soft agar colony-formation assay, PC3; assay type: cell-based; details: 1 week, Alamar Blue, read-out: IC50 in micromolar, PC3 (Soft Agar Assay)
Procedure: as §1, §2, §3

[4] = tested on: PC3 spheres (cancer stem cells); assay: In vitro sphere-forming assay (cancer stem cells), PC3 in Prostosphere media; details: for 3D sphere count of PC3 in Prostosphere media: 2000 cells/well, n = 6 ± S.D; for viability at 0.0025 µM: read-out: % Viability of spheres (PC3), 0.0025 uM
Source text: as §7
Materials and Reagents:50×B27 Supplement (Life Technologies, Invitrogen, Catlog No.: 17502-044), Fibroblast Growth Factor (FGF) (Sigma-Aldrich, Catlog No.: F029125), Epidermal Growth Factor (EGF) (Sigma-Aldrich, Catlog No.: E9644), Insulin (Sigma, Catlog No.: 19278), Dulbecco's Modified Eagle Medium/F12 (HiMedia Catlog No.: AL139-6), Dulbecco's Phosphate Buffered Saline (HiMedia Catlog No.: TL1006), Trypan Blue (TC193), Prostate Epithelial Media (LONZA, Catlog No.: CC-3166) MEGM (LONZA, Catlog No.: CC-3051), Heparin (Sigma, Catlog No.: H3393), Penstrep (HiMedia, Catlog No.: A002)
Prostosphere Media Preparation (For 100 mL): 1 g methyl cellulose autoclaved with magnetic stirrer, 100 mL plain media (Prostate Epithelial Basal Medium) was added and dissolved, under magnetic stirring. After complete dissolution, Insulin—40 μL, B27—2 mL, EGF—80 μL, Penstrep—1 ml was added.
as §8

[5] = tested on: MDAMB231 breast cancer cell line; assay: In vitro antiproliferative assay (MTT assay), MDAMB231; assay type: cell-based; details: 48 hrs drug incubation, read-out: IC50 in micromolar, MDAMB231 (MTT assay)
Procedure: (§4) MTT assay is a simple and sensitive assay where, metabolic reducing activity of the cells is measured. The increase of this activity in time is taken as a parameter of cell growth. If treatment with a drug impairs this increase, the action is a consequence of growth inhibition, cell killing or both. […] All cell lines were cultured in a 37° C. incubator with a 5% CO2 environment. Compounds were dissolved in DMSO with a concentration of 0.1M (stock solution). Cells were seeded into 96-well plates at suitable plating efficiency.
(§5) Following plating efficiencies were standardized for MTT assay:
(§6) In the MTT procedure, the cells were plated in 96 well plates as per predetermined plating efficiency (Table1). The plates were then incubated for 24 hrs in 5% CO2 atmosphere at 37° C. Appropriate concentrations of the drugs were then added to the plate and further incubation was carried out for 48 hrs (in 5% CO2 atmosphere at 37° C.). The assay plate was then centrifuged twice at 3000 rpm for 3 mins and supernatant was then discarded. 100 ul of MTT solution (0.5 mg/ml) was then added to each well of the plate and it was further incubated for 4 hrs (in 5% CO2 atmosphere at 37° C.) Following 4 hr incubation, the plate was then centrifuged twice, and supernatant was aspirated off very carefully. 200 ul of DMSO was then added to each well to solubilize. MTT crystals and mixed well by shaking the plate. XY graph of log percent viability was then plotted against log drug concentration.

[6] = tested on: DU145 prostate cancer cell line; assay: In vitro antiproliferative assay (MTT assay), DU145; assay type: cell-based; details: 48 hrs drug incubation, read-out: IC50 in micromolar, DU145 (MTT assay)
Procedure: as §4, §5, §6

[7] = tested on: PC3 prostate cancer cell line; assay: In vitro antiproliferative assay (MTT assay), PC3; assay type: cell-based; details: 48 hrs drug incubation, read-out: IC50 in micromolar, PC3 (MTT assay)
Procedure: as §4, §5, §6

[8] = read-out: % Viability of spheres (PC3)
[9] = Homo sapiens, MDA-MB-231, read-out: % Viability of spheres (MDAMB231)
[10] = Homo sapiens, MDA-MB-231, 168 h
[11] = read-out: % Viability of spheres (PC3), 0.025 uM, GCD = 100% viability
[12] = read-out: % Viability of spheres (PC3), 0.25 uM, GCD = 100% viability
[13] = read-out: % Viability of spheres (PC3), 2.5 uM, GCD = 100% viability
[14] = read-out: % Viability of spheres (PC3), 25 uM, GCD = 100% viability

Row | SMILES | 3D sphere count of MDAMB231 in Mammosphere media ([1]; 0.025 uM) | 3D sphere count of MDAMB231 in Mammosphere media ([1]; 0.25 uM) | 3D sphere count of MDAMB231 in Mammosphere media ([1]; 2.5 uM) | 3D sphere count of MDAMB231 in Mammosphere media ([1]; 25 uM) | 3D sphere count of MDAMB231 in Mammosphere media ([1]; 250 uM) | 3D sphere count of PC3 in Prostosphere media ([4]; 0.025 uM) | 3D sphere count of PC3 in Prostosphere media ([4]; 0.25 uM) | 3D sphere count of PC3 in Prostosphere media ([4]; 2.5 uM) | 3D sphere count of PC3 in Prostosphere media ([4]; 25 uM) | 3D sphere count of PC3 in Prostosphere media ([4]; 250 uM) | viability at 0.025 µM [1, 9] [%] | viability at 0.25 µM [1, 9] [%] | viability at 2.5 µM [1, 9] [%] | viability at 25 µM [1, 9] [%] | IC50 [2, 10] [µM] | IC50 ([3]; 168 h) [µM] | viability at 0.025 µM [4, 11] [%] | viability at 0.25 µM [4, 12] [%] | viability at 2.5 µM [4, 13] [%] | viability at 25 µM [4, 14] [%] | other results
1 | Cl.c1ccc2c(-c3ccc4c(c3)OCO4)ccc(OCCCCCCN3CCOCC3)c2c1 [Formula V, 4-(6-(1-(benzo[d][1,3]dioxol-5-yl)naphthalen-4-yloxy)hexyl)morpholine hydrochloride] | 41(±5) | 39(±3) | 27(±3) | 19(±4) | 0(±0) | 58(±3) | 49(±3) | 41(±2) | 30(±5) | 0(±0) |  |  |  |  |  |  |  |  |  |  | viability at 0.25 µM ([1]; Homo sapiens, MDA-MB-231, read-out: % Viability of spheres (MDAMB231), 0.25 uM, GCD = 100% viability): 47%; viability at 2.5 µM ([1]; Homo sapiens, MDA-MB-231, read-out: % Viability of spheres (MDAMB231), 2.5 uM, GCD = 100% viability): 33%; viability at 25 µM ([1]; Homo sapiens, MDA-MB-231, read-out: % Viability of spheres (MDAMB231), 25 uM, GCD = 100% viability): 23%; IC50 ([2]; hydrochloride): 2.21 µM; IC50 ([3]; hydrochloride): 3.98 µM; viability at 0.025 µM [4, 8]: 67%; viability at 0.25 µM [4, 8]: 57%; viability at 2.5 µM [4, 8]: 48%; viability at 25 µM [4, 8]: 35%; IC50 ([5]; hydrochloride): 9.25 µM; IC50 ([6]; hydrochloride): 9.77 µM; IC50 ([7]; hydrochloride): 6.03 µM
2 | N.N.[Cl][Pt][Cl] [Cisplatin, reference compound] |  |  |  |  | 24(±3) and 25(±2) |  |  |  |  | 29(±2) and 29(±5) and 25(±2) and 27(±2) |  |  |  |  |  |  |  |  |  |  | IC50 [2]: 26.2 µM; IC50 [3]: 33.4 µM; IC50 [5]: 29.4 µM; IC50 [6]: 29.8 µM; IC50 [7]: 24 µM
3 | O=C1OCc2c1c(-c1ccc3c(c1)OCO3)c1cc3c(cc1c2OCCCCN1CCOCC1)OCO3 [Formula XIII, 4-(4-morpholinobutoxy)-9-(benzo[d][1,3]dioxol-5-yl)-6,7-methylenedioxynaphtho[2,3-c]furan-1(3H)-one] | 40(±3) | 36(±2) | 30(±4) | 21(±3) |  | 44(±4) | 35(±3) | 32(±3) | 27(±3) |  | 50 | 45 | 38 | 26 | 3.03 | 3.84 | 55 | 44 | 40 | 34 | 3D sphere count of MDAMB231 in Mammosphere media ([1]; 0.0025 uM): 49(±3); viability at 0.0025 µM [1, 9]: 62%; 3D sphere count of PC3 in Prostosphere media ([4]; 0.0025 uM): 49(±3); viability at 0.0025 µM ([4]; GCD = 100% viability): 62%; IC50 ([5]; Homo sapiens, MDA-MB-231, 48 h): 7.29 µM; IC50 ([6]; Homo sapiens, DU-145, 48 h): 8.85 µM; IC50 ([7]; 48 h): 8.83 µM
4 | c1ccc2c(-c3ccc4c(c3)OCO4)ccc(OCCCCCCN3CCOCC3)c2c1 [Formula IV, 4-(6-(1-(benzo[d][1,3]dioxol-5-yl)naphthalen-4-yloxy)hexyl)morpholine] | 40(±2) | 35(±2) | 25(±2) | 11(±2) | 0(±0) | 44(±3) | 35(±3) | 32(±3) | 22(±3) | 0(±0) | 50 | 44 | 31 | 13 | 2.59 | 7.5 | 59 | 47 | 43 | 29 | viability at 250 µM [1, 9]: 0%; viability at 250 µM ([4]; read-out: % Viability of spheres (PC3), 250 uM, GCD = 100% viability): 0%; IC50 [5]: 3.86 µM; IC50 [6]: 3.16 µM; IC50 ([7]; 48 h): 3.79 µM
5 | c1ccc2c(-c3ccc4c(c3)OCO4)ccc(OCCCCN3CCOCC3)c2c1 [Formula VIII, 4-(4-(1-(benzo[d][1,3]dioxol-5-yl)naphthalen-4-yloxy)butyl)morpholine] | 49(±4) | 39(±2) | 28(±3) | 19(±1) |  | 49(±3) | 41(±2) | 36(±2) | 28(±3) |  | 69 | 55 ± 2 | 39 | 26 | 1.73 | 2.07 | 59 | 50 | 44 | 34 | 3D sphere count of MDAMB231 in Mammosphere media ([1]; 0.0025 uM): 54(±3); viability at 0.0025 µM [1, 9]: 76%; 3D sphere count of PC3 in Prostosphere media ([4]; 0.0025 uM): 57(±2); viability at 0.0025 µM ([4]; GCD = 100% viability): 69%; IC50 ([5]; Homo sapiens, MDA-MB-231, 48 h): 1.15 µM; IC50 ([6]; Homo sapiens, DU-145, 48 h): 0.723 µM; IC50 ([7]; 48 h): 1.77 µM
